According to ChEMBL document CHEMBL3286221, “Design and synthesis of novel 1,2,3-triazole derivatives of coronopilin as anti-cancer compounds” (Eur J Med Chem, 2014):

Legend:
MCF7 = assay: Cytotoxicity against human MCF7 cells after 48 hrs by sulforhodamine B assay; type: functional, cell-based; conditions: MCF7, 48 h
[1] = Cytotoxicity against human HCT15 cells after 48 hrs by sulforhodamine B assay; type: functional, cell-based; conditions: HCT-15, 48 h
PC-3 [2] = assay: Cytotoxicity against human PC3 cells after 48 hrs by sulforhodamine B assay; type: functional, cell-based; conditions: PC-3, 48 h
THP-1 = assay: Cytotoxicity against human THP1 cells after 48 hrs by sulforhodamine B assay; type: functional, cell-based; conditions: THP-1, 48 h
A549 = assay: Cytotoxicity against human A549 cells after 48 hrs by sulforhodamine B assay; type: functional, cell-based; conditions: A549, 48 h
HeLa = assay: Cytotoxicity against human HeLa cells after 48 hrs by sulforhodamine B assay; type: functional, cell-based
PC-3 [3] = assay: Cell cycle arrest in human PC3 cells assessed as accumulation at G0/G1 phase at 5 uM after 24 hrs by propidium iodide staining-based flow cytometric analysis (reference value: 68.2%); type: functional
PC-3 [4] = assay: Cell cycle arrest in human PC3 cells assessed as accumulation at M phase at 5 uM after 24 hrs by propidium iodide staining-based flow cytometric analysis (reference value: 3%); type: functional
PC-3 [5] = assay: Cell cycle arrest in human PC3 cells assessed as accumulation at S phase at 5 uM after 24 hrs by propidium iodide staining-based flow cytometric analysis (reference value: 8.5%); type: functional
PC-3 [6] = assay: Cell cycle arrest in human PC3 cells assessed as accumulation at sub-G1 phase at 5 uM after 24 hrs by propidium iodide staining-based flow cytometric analysis (reference value: 13.1%); type: functional
PC-3 [7] = assay: Cell cycle arrest in human PC3 cells assessed as accumulation at M phase at 10 uM after 24 hrs by propidium iodide staining-based flow cytometric analysis (reference value: 3%); type: functional
PC-3 [8] = assay: Cell cycle arrest in human PC3 cells assessed as accumulation at G0/G1 phase at 10 uM after 24 hrs by propidium iodide staining-based flow cytometric analysis (reference value: 68.2%); type: functional
PC-3 [9] = assay: Cell cycle arrest in human PC3 cells assessed as accumulation at S phase at 1 uM after 24 hrs by propidium iodide staining-based flow cytometric analysis (reference value: 8.5%); type: functional
[10] = biological target: Transcription factor p65 (Homo sapiens) (UniProt Q04206); assay: Inhibition of NFkappaB p65 binding to consensus DNA sequence in human PC3 cells after 24 hrs by Western blotting analysis; type: cell-based; conditions: PC-3
Chain of Transcription factor p65 (Homo sapiens) (Q04206 whole entry): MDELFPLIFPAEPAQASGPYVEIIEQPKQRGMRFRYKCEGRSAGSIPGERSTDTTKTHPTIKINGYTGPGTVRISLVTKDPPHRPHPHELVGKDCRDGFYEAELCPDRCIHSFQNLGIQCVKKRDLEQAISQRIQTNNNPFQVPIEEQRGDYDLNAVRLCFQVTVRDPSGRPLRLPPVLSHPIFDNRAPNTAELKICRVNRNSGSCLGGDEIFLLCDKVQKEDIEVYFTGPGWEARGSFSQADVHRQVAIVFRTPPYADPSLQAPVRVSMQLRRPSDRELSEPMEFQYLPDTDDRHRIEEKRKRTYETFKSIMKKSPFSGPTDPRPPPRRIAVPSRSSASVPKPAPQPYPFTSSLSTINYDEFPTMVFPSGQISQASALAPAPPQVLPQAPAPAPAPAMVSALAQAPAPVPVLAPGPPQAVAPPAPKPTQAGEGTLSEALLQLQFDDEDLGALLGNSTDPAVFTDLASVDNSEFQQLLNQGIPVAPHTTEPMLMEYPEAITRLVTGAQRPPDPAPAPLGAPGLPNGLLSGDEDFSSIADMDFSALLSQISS

PC-3 [11] = assay: Cell cycle arrest in human PC3 cells assessed as accumulation at sub-G1 phase at 1 uM after 24 hrs by propidium iodide staining-based flow cytometric analysis (reference value: 13.1%); type: functional
[12] = biological target: Transcription factor p65 (Homo sapiens) (UniProt Q04206); assay: Inhibition of NFkappaB p65 binding to consensus DNA sequence in human PC3 cells at 100 uM after 24 hrs by ELISA relative to control; type: cell-based; conditions: PC-3
PC-3 [13] = assay: Cell cycle arrest in human PC3 cells assessed as accumulation at sub-G1 phase after 24 hrs by propidium iodide staining-based flow cytometric analysis; type: functional
PC-3 [14] = assay: Cell cycle arrest in human PC3 cells assessed as accumulation at S phase at 10 uM after 24 hrs by propidium iodide staining-based flow cytometric analysis (reference value: 8.5%); type: functional
PC-3 [15] = assay: Cell cycle arrest in human PC3 cells assessed as accumulation at G0/G1 phase at 1 uM after 24 hrs by propidium iodide staining-based flow cytometric analysis (reference value: 68.2%); type: functional
PC-3 [16] = assay: Cell cycle arrest in human PC3 cells assessed as accumulation at sub-G1 phase at 10 uM after 24 hrs by propidium iodide staining-based flow cytometric analysis (reference value: 13.1%); type: functional
[17] = biological target: Transcription factor p65 (Homo sapiens) (UniProt Q04206); assay: Inhibition of NFkappaB p65 binding to consensus DNA sequence in human PC3 cells after 24 hrs by ELISA; type: cell-based; conditions: PC-3
[18] = biological target: Transcription factor p65 (Homo sapiens) (UniProt Q04206); assay: Inhibition of NFkappaB p65 binding to consensus DNA sequence in human PC3 cells at 100 uM after 24 hrs by Western blotting analysis relative to control; type: cell-based; conditions: PC-3
PC-3 [19] = assay: Cell cycle arrest in human PC3 cells assessed as accumulation at M phase at 1 uM after 24 hrs by propidium iodide staining-based flow cytometric analysis (reference value: 3%); type: functional

Row | SMILES | IC50 (MCF7) | IC50 [1] | IC50 (PC-3 [2]) | IC50 (THP-1) | IC50 (A549) | IC50 (HeLa) | further results
1 | C=C1C(=O)O[C@@H]2[C@H]1CC[C@H](C)[C@]1(O)[C@@H](n3cc(COc4ccc(C)cc4)nn3)CC(=O)[C@@]21C | 4.2 µM | 39 µM | 7.6 µM | 26 µM | 21 µM | 100 µM | 
2 | C=C1C(=O)O[C@@H]2[C@H]1CC[C@H](C)[C@]1(O)[C@@H](n3cc(COc4ccccc4C)nn3)CC(=O)[C@@]21C | 3.7 µM | 5.5 µM | 10 µM | 3.8 µM | 6.2 µM | 8.4 µM | 
3 | C=C1C(=O)O[C@@H]2[C@H]1CC[C@H](C)[C@]1(O)[C@@H](n3cc(CNc4ccc(COC(F)(F)F)cc4)nn3)CC(=O)[C@@]21C | 17 µM | 100 µM |  |  | 23 µM | 17 µM | 
4 | C=C1C(=O)O[C@@H]2[C@H]1CC[C@H](C)[C@]1(O)[C@@H](n3cc(CNc4ccccc4Br)nn3)CC(=O)[C@@]21C | 4.2 µM | 20 µM |  | 100 µM | 100 µM | 4.8 µM | 
5 | C=C1C(=O)O[C@@H]2[C@H]1CC[C@H](C)[C@]1(O)[C@@H](n3cc(COc4ccc(C(C)C)cc4C)nn3)CC(=O)[C@@]21C | 32 µM | 45 µM | 7.5 µM | 33 µM | 21 µM | 6.8 µM | 
6 | C=C1C(=O)O[C@@H]2[C@H]1CC[C@H](C)[C@]1(O)[C@@H](n3cc(CNc4ccc(F)cc4)nn3)CC(=O)[C@@]21C | 15 µM | 6.5 µM |  | 100 µM | 100 µM | 15 µM | 
7 | COc1cccc2c1C(=O)c1c(O)c3c(c(O)c1C2=O)C[C@@](O)(C(=O)CO)C[C@@H]3O[C@H]1C[C@H](N)[C@H](O)[C@H](C)O1 [DOXORUBICIN] | 0.5 µM |  |  |  |  |  | 
8 | C=C1C(=O)O[C@@H]2[C@H]1CC[C@H](C)[C@]1(O)C=CC(=O)[C@@]21C [PARTHENIN] | 40.2 µM | 35.3 µM | 43.1 µM | 46.2 µM | 37.6 µM |  | 
9 | C=C1C(=O)O[C@@H]2[C@H]1CC[C@H](C)[C@]1(O)[C@@H](n3cc(CNc4ccccc4OC)nn3)CC(=O)[C@@]21C | 28 µM | 15 µM |  | 100 µM | 23 µM | 28 µM | 
10 | C=C1C(=O)O[C@@H]2[C@H]1CC[C@H](C)[C@]1(O)[C@@H](n3cc(COc4ccc(Br)cc4)nn3)CC(=O)[C@@]21C | 16 µM | 48 µM | 4.7 µM | 10 µM | 14 µM | 6.5 µM | 
11 | CO[C@@]12[C@H](COC(N)=O)C3=C(C(=O)C(C)=C(N)C3=O)N1C[C@@H]1N[C@@H]12 [MITOMYCIN] |  | 0.5 µM |  |  |  |  | 
12 | C=C1C(=O)O[C@@H]2[C@H]1CC[C@H](C)[C@]1(O)[C@@H](n3cc(CNc4ccccc4F)nn3)CC(=O)[C@@]21C | 5.1 µM | 100 µM | 3.3 µM |  | 34 µM | 3.7 µM | 
13 | C=C1C(=O)O[C@@H]2[C@H]1CC[C@H](C)[C@]1(O)[C@@H](n3cc(COc4ccc(Cl)cc4)nn3)CC(=O)[C@@]21C | 7 µM | 27 µM | 5.2 µM | 12 µM | 4.1 µM | 3.6 µM | 
14 | C=C1C(=O)O[C@@H]2[C@H]1CC[C@H](C)[C@]1(O)[C@@H](n3cc(COc4ccc5ccccc5c4)nn3)CC(=O)[C@@]21C | 24 µM | 20 µM | 3.6 µM | 25 µM | 9 µM | 7.3 µM | 
15 | C=C1C(=O)O[C@@H]2[C@H]1CC[C@H](C)[C@]1(O)[C@@H](n3cc(CNc4ccccc4C)nn3)CC(=O)[C@@]21C | 15 µM | 8.5 µM | 4.6 µM | 17 µM | 23 µM | 3.9 µM | 
16 | C=C1C(=O)O[C@@H]2[C@H]1CC[C@H](C)[C@]1(O)[C@@H](n3cc(CCC)nn3)CC(=O)[C@@]21C | 14 µM | 5.5 µM | 100 µM |  | 12 µM | 8.4 µM | 
17 | CC[C@@]1(O)C(=O)OCc2c1cc1n(c2=O)Cc2cc3ccccc3nc2-1 [CAMPTOTHECIN] |  |  |  |  |  |  | Activity (PC-3 [3]): 30.17%; Activity (PC-3 [4]): 4.76%; Activity (PC-3 [5]): 4.94%; Activity (PC-3 [6]): 60.44%
18 | C=C1C(=O)O[C@@H]2[C@H]1CC[C@H](C)[C@]1(O)[C@@H](n3cc(CNn4ccc5cc(Br)ccc54)nn3)CC(=O)[C@@]21C | 4.5 µM | 26 µM |  |  | 100 µM | 7.2 µM | 
19 | C=C1C(=O)O[C@@H]2[C@H]1CC[C@H](C)[C@]1(O)[C@@H](n3cc(COc4ccccc4Cl)nn3)CC(=O)[C@@]21C | 9.7 µM | 5.3 µM | 3.1 µM | 3.8 µM | 4.2 µM | 3.6 µM | Activity (PC-3 [7]): 1%; Activity (PC-3 [8]): 50.7%; Activity (PC-3 [9]): 4.2%; inhibition [10]: Dose-dependent effect; Activity (PC-3 [11]): 38.8%; Activity (PC-3 [3]): 51.2%; Activity (PC-3 [4]): 1.9%; inhibition [12]: 80%; Activity (PC-3 [13]): Dose-dependent effect; Activity (PC-3 [14]): 3%; Activity (PC-3 [15]): 52.3%; Activity (PC-3 [16]): 49.2%; Activity (PC-3 [5]): 3.5%; inhibition [17]: Dose-dependent effect; inhibition [18]: 80%; Activity (PC-3 [6]): 39.9%; Activity (PC-3 [19]): 1%
20 | C=C1C(=O)O[C@@H]2[C@H]1CC[C@H](C)[C@]1(O)[C@@H](n3cc(COc4ccccc4F)nn3)CC(=O)[C@@]21C | 4.3 µM | 23 µM | 4.3 µM | 25 µM | 6.3 µM | 3.9 µM | 
21 | O=c1[nH]cc(F)c(=O)[nH]1 [FLUOROURACIL] |  | 4.5 µM |  |  |  | 4.9 µM | 
22 | C=C1C(=O)O[C@@H]2[C@H]1CC[C@H](C)[C@]1(O)[C@@H](n3cc(COc4ccccc4Br)nn3)CC(=O)[C@@]21C | 3.4 µM | 12 µM | 5.6 µM | 19 µM | 8.8 µM | 4.8 µM | 
23 | C=C1C(=O)O[C@@H]2[C@H]1CC[C@H](C)[C@]1(O)[C@@H](n3cc(COc4ccc(C(F)(F)F)cc4)nn3)CC(=O)[C@@]21C | 13 µM | 100 µM | 6.4 µM | 48 µM | 3.8 µM | 3.5 µM | 
24 | C=C1C(=O)O[C@@H]2[C@H]1CC[C@H](C)[C@]1(O)[C@@H](n3cc(CCc4ccccc4)nn3)CC(=O)[C@@]21C | 16 µM | 4.3 µM |  | 100 µM | 5.8 µM | 16 µM | 
